According to PMC6934184, “Selective DNA-PKcs inhibition extends the therapeutic index of localized radiotherapy and chemotherapy” (The Journal of Clinical Investigation, 2019):

Target: T1, LIMK2 (Homo sapiens, UniProt P53671)
T1 construct: purchased Thermo Fisher Scientific (Life Technologies) SelectScreen
Test: SelectScreen LanthaScreen
Assay type: binding
Details: read-out: % displacement
Procedure, shortened: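 NU5455 was profiled across the SelectScreen Broad panel of kinase activity and binding assays. Z'LYTE reactions such as CSF1R ran at apparent Km ATP, while the Adapta CAMK1 assay used ATP listed as 10. Values are given as percent.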

T1 sequence (P53671 whole entry): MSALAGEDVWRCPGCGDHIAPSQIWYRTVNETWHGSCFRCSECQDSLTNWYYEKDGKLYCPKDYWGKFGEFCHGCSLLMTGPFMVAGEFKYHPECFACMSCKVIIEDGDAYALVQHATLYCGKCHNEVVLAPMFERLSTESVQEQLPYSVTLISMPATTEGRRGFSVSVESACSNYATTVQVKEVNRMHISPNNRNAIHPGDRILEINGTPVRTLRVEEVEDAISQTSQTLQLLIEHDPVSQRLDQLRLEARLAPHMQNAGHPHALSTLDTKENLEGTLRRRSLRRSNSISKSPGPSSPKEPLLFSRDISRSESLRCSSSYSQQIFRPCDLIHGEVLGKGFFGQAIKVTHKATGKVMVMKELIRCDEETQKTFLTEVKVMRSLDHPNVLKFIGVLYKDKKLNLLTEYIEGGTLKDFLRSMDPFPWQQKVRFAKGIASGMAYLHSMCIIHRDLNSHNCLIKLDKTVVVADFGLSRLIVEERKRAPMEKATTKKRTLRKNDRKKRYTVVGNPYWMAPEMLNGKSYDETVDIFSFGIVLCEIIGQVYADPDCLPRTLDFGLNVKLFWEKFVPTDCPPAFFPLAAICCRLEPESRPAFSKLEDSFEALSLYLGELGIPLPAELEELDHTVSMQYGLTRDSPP

**Q.** How did the inhibition at 1 µM turn out when `CN(C(=O)CN1CCOCC1)c1ccc2sc3c(-c4cccc5c(=O)cc(N6CC7CCC(C6)O7)oc45)cccc3c2c1` [NU5455] was run?
**A.** 1.4%
